Measurements from PubChem BioAssay AID1996.
Converted amounts (≈) assume the structure as drawn.

Conditions: buffer; pH 7.4; 200.0 µM

First: Cc1ccsc1CNC1CCCCC1
Second: Cc1ccc(S(=O)(=O)Nc2ccccc2CNC2CCCCC2)cc1
The solubility kinetic of the first is lower: 24.1 µg/mL (≈ 115 µM) for the first, greater than 53.8 µg/mL for the second.

Compared with `COc1ccccc1C(=O)COC(=O)c1ccc(Cl)nc1`, `CCOC(=O)c1ccc(NC(=O)c2cc(C)nc3ccccc23)cc1` is lower in solubility kinetic: 44.6 µg/mL (≈ 146 µM) for the first, less than 0.4 µg/mL for the second.

Going from `COc1ccc(CCNC(=O)COC(=O)c2cc(S(=O)(=O)N3CCOCC3)ccc2C)cc1OC` to `CCNC(=O)c1cc(S(=O)(=O)N2CCSCC2)ccc1OC`, the solubility kinetic falls from greater than 76 µg/mL to 45.1 µg/mL (≈ 131 µM).

`N#Cc1c(N)n(-c2ccc(N)cc2)c2nc3ccccc3nc12` and `COc1ccc(CCn2c([S-])nc3ccccc3c2=O)cc1.[Na+]` are within 1.5-fold of each other in solubility kinetic: 1.2 µg/mL (≈ 4 µM) for the first, 1.5 µg/mL for the second.

Compared with `CCC(CC)NC(=O)Nc1ccccc1C(F)(F)F`, `CCN1C(=O)C(=O)N(CC(=O)Nc2cccc(C(F)(F)F)c2)C1=O` is higher in solubility kinetic: 10.8 µg/mL (≈ 39.4 µM) for the first, greater than 51.5 µg/mL for the second.

`COC(=O)C1CN(C(=O)COc2ccccc2)c2ccccc2O1` (stereo unspecified) and `O=C(CSc1ccccc1)NCCc1ccccc1` are within 1.5-fold of each other in solubility kinetic: 48.7 µg/mL (≈ 149 µM) for the first, 39.4 µg/mL (≈ 145 µM) for the second.

Going from `COc1cc(C(=O)O/N=C2\C=CC(=O)C(C)=C2)cc(OC)c1OC` to `COc1cc(C(=O)N2c3ccccc3CCC2C)cc(OC)c1OC` (stereo unspecified), the solubility kinetic falls from greater than 49.7 µg/mL to 32.8 µg/mL (≈ 96.1 µM).

`COc1cccc(CNc2ccc3c(c2)nc(C)n3C)c1OC` and `CCn1cnc2cc(NCc3cccs3)ccc21` cannot be ordered by solubility kinetic: 44.8 µg/mL (≈ 144 µM) for the first, greater than 38.6 µg/mL for the second.

Going from `CC(C)(C)C(=O)Nc1ccc(S(=O)(=O)Nc2nccs2)cc1` to `Cc1cccnc1NC(=O)NC(=O)c1ccc(C(C)(C)C)s1`, the solubility kinetic falls from greater than 50.9 µg/mL to 9.1 µg/mL (≈ 28.7 µM).

Compared with `O=C(CN1C(=O)NC(Cc2c[nH]c3ccccc23)C1=O)Nc1ccc(F)cc1F` (stereo unspecified), `CCOC(=O)c1c[nH]c2ccc3ccccc3c2c1=O` is 1.8-fold lower in solubility kinetic: 19 µg/mL (≈ 47.7 µM) for the first, 10.3 µg/mL (≈ 38.5 µM) for the second.

Compared with `CCCc1ccc(NS(=O)(=O)c2c(C)oc(C)c2C(=O)OC)cc1`, `COc1ccc(NS(=O)(=O)c2ccc(F)cc2F)cn1` is 5.9-fold higher in solubility kinetic: 7.4 µg/mL (≈ 21.1 µM) for the first, 43.3 µg/mL (≈ 144 µM) for the second.

`COc1ccc(-n2c(C)ccc2C)c([N+](=O)[O-])c1` and `Cc1ccc(C(=O)Nc2ncc([N+](=O)[O-])s2)cc1` are within 1.5-fold of each other in solubility kinetic: 22.7 µg/mL (≈ 92.2 µM) for the first, 27 µg/mL (≈ 103 µM) for the second.

Compared with `CCOC(=O)c1[nH]cnc1C(=O)Nc1ccc(F)cc1`, `Cc1ccsc1C(=O)NCc1ccc(F)cc1` is higher in solubility kinetic: 6.7 µg/mL (≈ 24.2 µM) for the first, greater than 37.4 µg/mL for the second.

Going from `Cc1ccc(C(=O)O/N=C(\N)c2ccccn2)cc1C` to `CC(C)NC(=O)c1cc(-c2cccs2)nc2ccccc12`, the solubility kinetic rises from 2.6 µg/mL (≈ 9.65 µM) to 4.6 µg/mL (≈ 15.5 µM) (1.8-fold).

Compared with `Cc1ccc(SCc2nc3ncccn3c2Br)cc1`, `O=C(c1nc(SCc2ccc([N+](=O)[O-])cc2)n2ccccc12)C(F)(F)F` is lower in solubility kinetic: greater than 50.1 µg/mL for the first, less than 0.3 µg/mL for the second.

`CCCS(=O)(=O)N1CCCC(C(=O)N2CCCCC2)C1` (stereo unspecified) and `CN(CC(=O)Nc1ccc(F)cc1)CC(=O)N1CCCCCC1` are within 1.5-fold of each other in solubility kinetic: 43 µg/mL (≈ 142 µM) for the first, 44.8 µg/mL (≈ 139 µM) for the second.

`O=C1Nc2cc(C(F)(F)F)ccc2N2CCCCC12` (stereo unspecified) and `CC1CC2(CCCC2)N(C(=O)N(C)C)c2ccc(F)cc21` (stereo unspecified) are within 1.5-fold of each other in solubility kinetic: 7.1 µg/mL (≈ 26.3 µM) for the first, 10.5 µg/mL (≈ 36.2 µM) for the second.

Going from `Cc1cc(=O)n(Cc2ccccc2)c(O)c1C#N` to `CCOc1cc(C(=S)N2CCCC2)ccc1OCc1ccccc1`, the solubility kinetic falls from 32.2 µg/mL (≈ 134 µM) to 7.6 µg/mL (≈ 22.3 µM) (4.2-fold).

`CC(=O)c1ccc(OC(C)C(=O)NCC2(N3CCOCC3)CCCCC2)cc1` (stereo unspecified) and `Cc1ccc(S(=O)(=O)NCC(C)NC(=O)CN2CCOCC2)cc1` (stereo unspecified) cannot be ordered by solubility kinetic: greater than 58.3 µg/mL for the first, greater than 53.3 µg/mL for the second.

Going from `CSc1nc(-c2ccccc2)nc(NC(C)=O)c1C(C)=O` to `Cc1cc(N2CCOCC2)n2cc(-c3ccccc3)nc2n1`, the solubility kinetic rises from 3.9 µg/mL (≈ 12.9 µM) to 12.3 µg/mL (≈ 41.8 µM) (3.2-fold).

`CCCN=C1CC(C)(C)CC(=O)/C1=C(/O)CCC` and `CCN(CC)S(=O)(=O)c1ccc(C(=O)O)cc1` are within 1.5-fold of each other in solubility kinetic: 37.5 µg/mL (≈ 149 µM) for the first, 30.4 µg/mL (≈ 118 µM) for the second.

Going from `O=C1CCCN1c1ccc(N2CCCC2=O)cc1` to `CC(C)c1ccc(N2C(=O)C3C4C=CC(CC4)C3C2=O)cc1` (stereo unspecified), the solubility kinetic falls from greater than 36.6 µg/mL to 2.7 µg/mL (≈ 9.14 µM).

First: O=S(=O)(Nc1ccccc1)c1ccc2c(c1)CCO2
Second: COc1ccc2c(ccc[n+]2CC(=O)c2ccccc2)c1.[Br-]
The solubility kinetic of the first is lower: 37.7 µg/mL (≈ 137 µM) for the first, greater than 53.7 µg/mL for the second.

Going from `Cc1onc(-c2c(Cl)cccc2Cl)c1C(=O)c1ccc(F)cc1` to `O=C(NC(O)C(=O)c1ccc(F)cc1)c1ccc(F)cc1` (stereo unspecified), the solubility kinetic rises from less than 0.7 µg/mL to greater than 43.7 µg/mL.

Going from `Cc1cc(C)cc(NC(=O)c2cccc(NC(=O)c3ccco3)c2)c1` to `Cc1ccc(NC(=S)Nc2ccc3[nH]c(=O)[nH]c3c2)cc1C`, the solubility kinetic rises from 1 µg/mL (≈ 2.99 µM) to 17.9 µg/mL (≈ 57.3 µM) (18-fold).

`CN1C2CCC1CC(OC(c1ccccc1)c1ccccc1N)C2` (stereo unspecified) and `COc1ccc(N2CCN(CC(=O)c3ccccc3)CC2)cc1` cannot be ordered by solubility kinetic: greater than 48.4 µg/mL for the first, greater than 46.6 µg/mL for the second.

Going from `Cc1cccc(N2CCN(Cc3ccc4c(c3)OCO4)CC2)c1C` to `COc1ccc(NC2CCCN(C(=O)c3ccncc3)C2)cc1` (stereo unspecified), the solubility kinetic rises from 4 µg/mL (≈ 12.3 µM) to greater than 46.7 µg/mL.

First: C#CCn1ccc(O)c(Cc2c(F)cccc2Cl)c1=O
Second: CCCOc1ccc(N2C(=O)C/C(=C\c3ccccc3)C2=O)cc1
The solubility kinetic of the first is higher: greater than 43.8 µg/mL for the first, less than 0.7 µg/mL for the second.

`CN(C(=S)Nc1ccc(SC(F)F)cc1)c1ccc(O)cc1` and `CC(C)NC(=O)NC(=O)COC(=O)c1cc[n+]([O-])cc1` cannot be ordered by solubility kinetic: greater than 51.1 µg/mL for the first, greater than 42.2 µg/mL for the second.

`OCC1(CO)COC(/C=C/c2ccccc2)=N1` and `NC(=O)C1CCN(C(=O)/C=C/c2ccccc2[N+](=O)[O-])CC1` cannot be ordered by solubility kinetic: greater than 35 µg/mL for the first, greater than 45.5 µg/mL for the second.

Work on `CCC(C)[C@H](NC(=O)NCCC1=CCCCC1)C(=O)OC` (stereo partly specified) yielded a solubility kinetic greater than 44.5 µg/mL.
